This is an account of results in PMC3572379, “Pharmacokinetic and pharmacodynamic effects of comedication of clopidogrel and dabigatran etexilate in healthy male volunteers” (European Journal of Clinical Pharmacology, 2012).

The structures appear in SMILES notation. Like-named read-outs stand apart in the source and are kept apart here.

Series [1] deals with ADP-induced platelet aggregation. Briefly: ADP-induced inhibition of platelet aggregation (light transmission aggregometry in citrated PRP). The format is in vivo, healthy male subjects. Conditions: for Emax: Homo sapiens, Platelet. On the procedure:
The primary endpoints for PD were area under the effect curve of ADP-induced inhibition of platelet aggregation (IPA) at steady state of clopidogrel over one dosing interval from 0–24 h after dosing (AUECIPA,τ,ss); maximum percentage change compared with baseline in ADP-induced platelet aggregation at steady state of clopidogrel (Emax,IPA,ss); AUEC from 0 to 24 h (AUECIPA,0–24) after the loading dose of clopidogrel 600 mg; and the maximum percentage change compared with baseline in ADP-induced platelet aggregation from 0 to 24 h (Emax,IPA,0–24) after the loading dose of clopidogrel 600 mg.
The following PD parameters were also evaluated: • For clopidogrel, ADP-induced IPA was determined at predefined time points. • Capillary bleeding times were assessed (part 2 and part 3 of the study) before clopidogrel administration, 2, 4, and 12 h after clopidogrel administration, and following administration of dabigatran etexilate alone.
For platelet aggregation testing, ∼9 mL of blood was collected into a 10 mL monovette containing citrate to yield a final concentration of 10.6 mM. Platelet-rich plasma (PRP) was prepared by centrifugation and removed from the red-cell sediment. Approximately 0.5 mL platelet-poor plasma (PPP) was prepared from PRP by further centrifugation. Inhibition of platelet aggregation was performed by light transmission aggregometry in citrated PRP, using an 8-channel platelet aggregation profiler (PAP 8) aggregometer (möLab, Germany). The PRP (0% light transmission) and PPP (100% light transmission) served as reference. After baseline adjustment, ADP in a final concentration of 20 μM was added and aggregation recorded for 6 min. Maximum aggregation (%) within the first 6 min after addition of ADP was determined.

Series [2] relates to blood coagulation parameters (aPTT, ECT, TT). Briefly: Blood coagulation parameters aPTT, ECT and TT (anti-factor IIa). The format is in vivo, healthy male subjects. Conditions: part 2; DE given alone or in combination with clopidogrel. On the procedure:
The secondary endpoints included other PK parameters and the effects of clopidogrel on the PD of dabigatran assessed by ECT, aPTT, TT (including maximum effect ratio, ERmax) as well as the CBT.
Calibration curves for clopidogrel and SR26334 covered concentration ranges of 0.01–10 ng/mL and 0.02–20 μg/mL, respectively, with an inaccuracy generally below 4% and imprecision below 9%. For blood coagulation parameters aPTT, ECT, and TT (PD analyses), ∼3 mL of blood were collected in sodium citrate monovettes at the time points indicated for PK analyses. The blood samples were centrifuged, frozen, and stored at −20°C or below. The aPTT, ECT, and TT parameters were analyzed on an MC10PLUS coagulometer using validated methods by BiochemA, Riegel, Germany. aPTT was measured using a kit from Roche Diagnostics (Mannheim, Germany) according to manufacturer’s instructions, and the ECT assay utilized ecarin from Pentapharm (Basel, Switzerland). Thrombin inhibition (TT), anti-factor IIa, was measured by the Hemoclot Thrombin Inhibitors Assay® (Hemoclot® TT #CK002K, HYPHEN BioMed, Neuville-sur-Oise, France) according to the manufacturer’s instructions. The Hemoclot kit was used for the quantitative measurement of direct thrombin inhibitors in plasma, with a clotting method based on the inhibition of a constant and defined concentration of thrombin.
AUEC and ERmax of aPTT, ECT, and TT as well as CBT, and safety and tolerability were assessed descriptively as secondary parameters.

Series [3] in a line: Capillary bleeding time (Surgicutt device). The format is in vivo, healthy male subjects. Particulars: part 2. The protocol:
The bleeding time was assessed by single measurements on the forearm using the Surgicutt® Bleeding Time Device (Product Number SUB50, International Technidyne, Edison, NJ, USA). Using a Surgicutt device, a standardized incision of 5 mm length and 1 mm depth was made in the skin. Every 30 s, the blood flow was wicked away cautiously with filter paper, so that the platelet plug remained intact, until the bleeding stopped. Normal bleeding time was under 8 min. For the CBT individual listings including the baseline value, the maximum value of the post-dose measurements, and the corresponding time of the maximum value were provided.

Series [4] can be described thus: Safety and tolerability assessment. The format is in vivo, healthy male subjects. Particulars: one subject each; parts 2 and 3.
For series [5] the following is noted: cited from earlier work.
The next series relates to P-gp. Particulars: cited from earlier work.
Setting [6] is: part 2, clopidogrel 75 mg qd + DE 150 mg bid vs clopidogrel 75 mg qd.
[7] abbreviates: part 3, clopidogrel 600 mg + DE 150 mg bid vs clopidogrel 600 mg.
The mark [8] stands for this setting: part 3, reference: clopidogrel 600 mg single dose, n 12.

On to `COC(=O)[C@H](c1ccccc1Cl)N1CCc2sccc2C1` [Clopidogrel, clopidogrel], for which the maximal response (Emax) is ~50% in series [1] (part 1, after single dose clopidogrel 300 mg, data not shown, read-out: maximum inhibition of ADP-dependent platelet aggregation (Emax)); 58.8% in series [1] (part 2, reference: clopidogrel 75 mg qd, n 23, read-out: Emax, ss, mean (maximum percentage change in ADP-induced platelet aggregation)); 55.1% in series [1] (part 2, test: clopidogrel 75 mg qd + DE 150 mg bid, n 21, read-out: Emax, ss, mean (maximum percentage change in ADP-induced platelet aggregation)); ~60% in series [1] (part 3, reference: clopidogrel 600 mg single dose, n 12, read-out: Emax, mean (maximum percentage change in ADP-induced platelet aggregation)); 66.8% in series [1] (part 3, test: clopidogrel 600 mg + DE 150 mg bid, n 11, read-out: Emax, mean (maximum percentage change in ADP-induced platelet aggregation)). The “AUECIPA, τ,ss difference test – reference” value in series [1] (setting [6]) is on record as −39.7 %·h. Also, the “AUECIPA, τ,ss difference test – reference, relative” value in series [1] (setting [6]) is −8.0%. Further, the “AUECIPA, τ,ss, mean” value was found to be 496 %·h in series [1] (part 2, reference: clopidogrel 75 mg qd, n 21) and 456 %·h in series [1] (part 2, test: clopidogrel 75 mg qd + DE 150 mg bid, n 21). The “AUEC0–24h difference test – reference” value in series [1] (setting [7]) was −84.6 %·h. The “AUEC0–24h difference test – reference, relative” value in series [1] (setting [7]) is recorded as −6.7%. Besides, the “AUEC0–24h of IPA, mean” value in series [1] (setting [8]) was 1264 %·h; in series [1] (part 3, reference: clopidogrel 600 mg single dose, n 12, listed as clopidogrel), 1,264 %·h; in series [1] (part 3, test: clopidogrel 600 mg + DE 150 mg bid, n 11), 1179 %·h; in series [1] (part 3, test: clopidogrel 600 mg + DE 150 mg bid, n 11, listed as clopidogrel), 1,179 %·h. Also, the “Emax, mean (maximum percentage change in ADP-induced platelet aggregation)” value in series [1] (setting [8]) was 66.0%. The “effect on dabigatran PK/PD relationship (TT, ECT, aPTT vs plasma concentration)” value in series [2] is on record as “No effect”. The “maximum capillary bleeding time (CBT)” value in series [3] is reported as “prolonged”. Also, the “AEs considered related to the study drugs” value in series [4] is on record as “hematoma”. The “bleeding time, overall least square means” value in series [5] was 1.96 times baseline. Also, the “substrate of P-gp” value in the series on P-gp was “substrate of P-gp”.
